{
  "source": "paper PMC6100512",
  "about": "“In-Vitro Activity of Silybin and Related Flavonolignans against Leishmania infantum and L. donovani” (Molecules : A Journal of Synthetic Chemistry and Natural …, 2018)",
  "key": {"Li UCM9 promastigotes": {"tested_on": "Li UCM9 promastigotes", "experiment": "Multiplication of Li promastigotes in vitro (CellTiter-Glo, 24 h)", "format": "cell-based, Leishmania infantum", "conditions": "Leishmania infantum; for inhibition of growth at 120 µM: 24 h, compared to untreated cultures, mean ± SD, read-out: Reduction (%) of multiplication, L infantum promastigotes; for Emax: exploratory screening, 0.94 µM up to 120 µM, read-out: Maximal effect (inhibition of growth of control cultures) on Li promastigotes", "experimental": "(§1) Growth was estimated by the addition of CellTiter-Glo® (Promega, Madison, WI, USA) (1:1) in 96-well microtiter white plates (Costar, Corning). After 10 min incubation (light protected, room temperature), luminescence was determined with FLUOstar Omega (BMG Labtech) reader. Sensitivity of Ld was similarly performed with promastigotes exposed to 120 μM. Control cultures (medium, untreated promastigotes, promastigotes treated with 0.2 μM AmB) were included. Experiment was carried out in triplicate and results expressed as % of inhibition of untreated control. Approximate IC50 values of the flavonolignans showing the highest inhibitory activity against Li mid-log-phase promastigotes were determined using dose-response curves. […] The compound with the highest activity, DhiS-A, was assayed against Ld promastigotes using the latter dilution series and the same culture conditions as above. For comparative purposes, mid-log promastigotes of Li and Ld were exposed to established anti-Leishmania agents: AmB (0.0078 μ[…] and 1.0 μM); […]"}, "Ld promastigotes": {"tested_on": "Ld promastigotes", "experiment": "Multiplication of Ld promastigotes in vitro (CellTiter-Glo, 24 h)", "format": "cell-based, L. donovani", "conditions": "Leishmania donovani, 120 µM, compared to untreated cultures, mean ± SD, read-out: Reduction (%) of multiplication, L. donovani promastigotes", "experimental": "as §1"}, "[1]": {"tested_on": "BALB/c mouse peritoneal macrophages, Mφ", "experiment": "Toxicity of flavonolignans for macrophages (CellTiter-Glo)", "format": "cell-based", "conditions": "Peritoneal macrophage, 24 h, 28.125 to 900 µM, approximate", "experimental": "Toxicity of flavonolignans for mammalian cells was determined using mouse peritoneal Mφ. Cells obtained were counted and seeded onto 96-well cultures plates (Costar, Corning) at a final concentration of 5 × 10^4 Mφ/well (100 µL/well). Plates were incubated overnight at 37 °C and humidified 5% CO2/95% air to facilitate adherence. Cells were cultured as above for 24 h with different concentrations of the flavonolignans (28.125 µM, 56.25 µM, 112.5 µM, 225 µM, 450 µM and 900 µM). After incubation, cell viability was determined with CellTiter-Glo® as previously described. Untreated and 300 µM AmB-treated control wells were included. Experiments were done in triplicate and approximate IC50 determined."}, "Li promastigotes": {"tested_on": "Li promastigotes", "experiment": "Drug combination with DhiS-A, Chou-Talalay method (CalcuSyn)", "format": "cell-based, Leishmania infantum", "conditions": "for CI value of combination Dn + DhiS-A: constant ratio Dn:DhiS-A (AmB 0.01:15; Sb^III 1:1; PMM 5:1); for Dose Required of Dn in combination with DhiS-A: computer-simulated; for DRI of Dn in combination with DhiS-A: fold dose reduction vs single agent", "experimental": "Fixed-combination ratios of drugs were based on the IC50 values determined for the individual molecules. Mid-log-phase promastigotes of Li were exposed for 24 h at constant ratios of 0.01:15 (AmB:DhiS-A), 1:1 (Sb^III:DhiS-A) and 5:1 (PMM:DhiS-A). Dose–response curves of the combinations were analyzed with the Chou–Talalay method, based on the theorem of combination index (CI)-isobologram and CalcuSyn software. This method allows the evaluation of the type of interaction between two molecules according to mass action law. Results can be used to determine quantitatively the synergy (CI < 1), additive effect (CI = 1) or antagonism (CI > 1) of combinations. Moreover, the program allows the calculation of the drug reduction index (DRI): dose reduction in drug combinations to reach a given inhibition compared to the activity of the individual drugs."}},
  "data": [
    {"compound": "COc1cc([C@@H]2Oc3cc([C@H]4Oc5cc(O)cc(O)c5C(=O)[C@@H]4O)ccc3O[C@H]2CO)ccc1O", "note": "[Silybin B, silybin B]", "values": [
      {"measurement": "inhibition of growth at 120 µM", "setting": "Li UCM9 promastigotes", "value": "-3.82 ± 9.11", "unit": "%"},
      {"measurement": "inhibition of growth at 120 µM", "setting": "Ld promastigotes", "value": "30.9 ± 5.02", "unit": "%"}
    ]},
    {"compound": "COc1cc(C2Oc3cc(-c4oc5cc(O)cc(O)c5c(=O)c4O)ccc3OC2CO)ccc1O", "note": "(stereo not shown) [Dehydrosilybin AB, dehydrosilybin AB]", "values": [
      {"measurement": "inhibition of growth at 120 µM", "setting": "Li UCM9 promastigotes", "value": "17.9 ± 4.33", "unit": "%"},
      {"measurement": "Emax", "setting": "Li UCM9 promastigotes", "value": "< 50", "unit": "%"},
      {"measurement": "inhibition of growth at 120 µM", "setting": "Ld promastigotes", "value": "9.01 ± 3.59", "unit": "%"},
      {"measurement": "IC50", "setting": "[1]", "value": "~37", "unit": "µM"}
    ]},
    {"compound": "NC[C@@H]1O[C@H](O[C@H]2[C@@H](O)[C@H](O[C@@H]3[C@@H](O)[C@H](N)C[C@H](N)[C@H]3O[C@H]3O[C@H](CO)[C@@H](O)[C@H](O)[C@H]3N)O[C@@H]2CO)[C@H](N)[C@@H](O)[C@@H]1O", "note": "[PMM, paromomycin sulphate]", "values": [
      {"measurement": "CI value of combination Dn + DhiS-A", "setting": "Li promastigotes; ED50 (50% growth inhibition)", "value": "1.98 (antagonism)"},
      {"measurement": "Dose Required of Dn in combination with DhiS-A", "setting": "Li promastigotes; ED50", "value": 822, "unit": "µM"},
      {"measurement": "DRI of Dn in combination with DhiS-A", "setting": "Li promastigotes; ED50", "value": 39.54},
      {"measurement": "CI value of combination Dn + DhiS-A", "setting": "Li promastigotes; ED75 (75% growth inhibition)", "value": "1.65 (antagonism)"},
      {"measurement": "Dose Required of Dn in combination with DhiS-A", "setting": "Li promastigotes; ED75", "value": 1145, "unit": "µM"},
      {"measurement": "DRI of Dn in combination with DhiS-A", "setting": "Li promastigotes; ED75", "value": 182.9},
      {"measurement": "CI value of combination Dn + DhiS-A", "setting": "Li promastigotes; ED90 (90% growth inhibition)", "value": "1.38 (moderate antagonism)"},
      {"measurement": "Dose Required of Dn in combination with DhiS-A", "setting": "Li promastigotes; ED90", "value": 1594, "unit": "µM"},
      {"measurement": "DRI of Dn in combination with DhiS-A", "setting": "Li promastigotes; ED90", "value": 845.2},
      {"measurement": "CI value of combination Dn + DhiS-A", "setting": "Li promastigotes; ED95 (95% growth inhibition)", "value": "1.23 (moderate antagonism)"},
      {"measurement": "Dose Required of Dn in combination with DhiS-A", "setting": "Li promastigotes; ED95", "value": 1997, "unit": "µM"},
      {"measurement": "DRI of Dn in combination with DhiS-A", "setting": "Li promastigotes; ED95", "value": 2393},
      {"measurement": "Type of interaction with DhiS-A", "setting": "Li promastigotes; Li promastigotes, fixed ratios AmB 0.01:15, Sb^III 1:1, PMM 5:1 (Dn:DhiS-A)", "value": "antagonists"}
    ]},
    {"compound": "COc1cc([C@@H]2Oc3cc(-c4oc5cc(O)cc(O)c5c(=O)c4O)ccc3O[C@H]2CO)ccc1O", "note": "[Dehydrosilybin B, dehydrosilybin B]", "values": [
      {"measurement": "inhibition of growth at 120 µM", "setting": "Li UCM9 promastigotes", "value": "20.9 ± 11.6", "unit": "%"},
      {"measurement": "inhibition of growth at 120 µM", "setting": "Ld promastigotes", "value": "38.1 ± 2.9", "unit": "%"},
      {"measurement": "IC50", "setting": "[1]", "value": "~41.2", "unit": "µM"}
    ]},
    {"compound": "COc1cc([C@H]2Oc3cc([C@H]4Oc5cc(O)cc(O)c5C(=O)[C@@H]4O)ccc3O[C@@H]2CO)ccc1O", "note": "[Silybin A, silybin A]", "values": [
      {"measurement": "inhibition of growth at 120 µM", "setting": "Li UCM9 promastigotes", "value": "-3.18 ± 9.09", "unit": "%"},
      {"measurement": "inhibition of growth at 120 µM", "setting": "Ld promastigotes", "value": "14.2 ± 7.6", "unit": "%"}
    ]},
    {"compound": "COc1cc([C@@H]2Oc3c(O)cc(-c4oc5cc(O)cc(O)c5c(=O)c4O)cc3[C@H]2CO)ccc1O", "note": "[Dehydrosilychristin A, dehydrosilychristin A]", "values": [
      {"measurement": "inhibition of growth at 120 µM", "setting": "Li UCM9 promastigotes", "value": "30.6 ± 3.33", "unit": "%"},
      {"measurement": "Emax", "setting": "Li UCM9 promastigotes", "value": "< 50", "unit": "%"},
      {"measurement": "inhibition of growth at 120 µM", "setting": "Ld promastigotes", "value": "46.7 ± 1.24", "unit": "%"},
      {"measurement": "IC50", "setting": "[1]", "value": "~40", "unit": "µM"}
    ]},
    {"compound": "COc1cc([C@@H]2Oc3c(O)cc([C@H]4Oc5cc(O)cc(O)c5C(=O)[C@@H]4O)cc3[C@H]2CO)ccc1O", "note": "[Silychristin A, silychristin A]", "values": [
      {"measurement": "inhibition of growth at 120 µM", "setting": "Li UCM9 promastigotes", "value": "27.1 ± 8.64", "unit": "%"},
      {"measurement": "Emax", "setting": "Li UCM9 promastigotes", "value": "< 50", "unit": "%"},
      {"measurement": "inhibition of growth at 120 µM", "setting": "Ld promastigotes", "value": "19.2 ± 5.75", "unit": "%"}
    ]}
  ]
}
